Test results: patent US4345069A, “Deformyltylosin derivatives” (Toyo Jozo Kabushiki Kaisha, priority 1979, dated 1982)
Converted amounts (≈) assume the structure as drawn. Read-outs that look alike come from different tables or passages of the source.

Legend:
Experiment in all cases: Minimum inhibitory concentration
Format in all cases: cell-based
[1] = system: Staphylococcus aureus 0126
From the text: (§1) Minimum Inhibitory Concentration (μg/ml)
**erythromycin and oreandomycin resistant strain.

[2] = system: Staphylococcus aureus MS353 C36; details: MS353C36, read-out: Minimum Inhibitory Concentration
From the text: as §1
*erythromycin resistant strain

[3] = system: Staphylococcus aureus MS353
[4] = system: Staphylococcus aureus ATCC 6538p; details: ATCC6538P
[5] = system: Streptococcus pyogenes N.Y.5
[6] = Staphylococcus aureus 0126, erythromycin and oreandomycin resistant strain, read-out: Minimum Inhibitory Concentration
[7] = Staphylococcus aureus, 0126, read-out: Minimum Inhibitory Concentration

SMILES	MIC [1, 6]	MIC [2]	MIC [3]	MIC [4]	MIC [5]	MIC [1, 7]
CCC1OC(=O)C=CC(C)C(OC2OC(C)C(O)C(N(C)C)C2O)C(C)CC(C)C(=O)C=CC(C)=CC1COC1OC(C)C(O)C(OC)C1OC (stereo not drawn) [19-deformyl-2,3-didehydro-3-dehydroxy-4'-demycarosyltylosin]	1.6 µg/mL (≈ 2.2 µM)	0.4 µg/mL (≈ 0.551 µM)	0.2 µg/mL (≈ 0.276 µM)	0.2 µg/mL (≈ 0.276 µM)	0.2 µg/mL (≈ 0.276 µM)	
CCC1OC(=O)CC(OC(=O)Cc2ccccc2)C(C)C(OC2OC(C)C(O)C(N(C)C)C2O)C(C)CC(C)C(=O)C=CC(C)=CC1COC1OC(C)C(O)C(OC)C1OC (stereo not drawn) [19-deformyl-4'-demycarosyl-3-phenylacetyltylosin]		0.1 µg/mL (≈ 0.116 µM)	0.2 µg/mL (≈ 0.232 µM)	0.2 µg/mL (≈ 0.232 µM)	≤ 0.05 µg/mL	0.4 µg/mL (≈ 0.464 µM)
CCC1OC(=O)CC(O)C(C)C(OC2OC(C)C(O)C(N(C)C)C2O)C(C)CC(C)C(=O)C=CC(C)=CC1COC1OC(C)C(O)C(OC)C1OC (stereo not drawn) [19-deformyl-4'-demycarosyltylosin]	0.8 µg/mL (≈ 1.08 µM)	0.2 µg/mL (≈ 0.269 µM)	0.2 µg/mL (≈ 0.269 µM)	0.2 µg/mL (≈ 0.269 µM)	0.1 µg/mL (≈ 0.134 µM)	
CCC1OC(=O)CC(O)C(C)C(OC2OC(C)C(OC3CC(C)(O)C(O)C(C)O3)C(N(C)C)C2O)C(C)CC(C)C(=O)C=CC(C)=CC1COC1OC(C)C(O)C(OC)C1OC (stereo not drawn) [19-deformyltylosin]		0.8 µg/mL (≈ 0.901 µM)	1.6 µg/mL (≈ 1.8 µM)	1.6 µg/mL (≈ 1.8 µM)	1.6 µg/mL (≈ 1.8 µM)	
CCC1CC(C)C(=O)C=CC(C)=CC(COC2OC(C)C(O)C(OC)C2OC)C(CC)OC(=O)CC(O)C(C)C1OC1OC(C)C(O)C(N(C)C)C1O (stereo not drawn) [20-deoxo-4'-demycarosyltylosin]		0.1 µg/mL (≈ 0.132 µM)	0.2 µg/mL (≈ 0.264 µM)	0.2 µg/mL (≈ 0.264 µM)	0.2 µg/mL (≈ 0.264 µM)	
CC[C@H]1OC(=O)[C@H](C)[C@@H](O[C@H]2C[C@@](C)(OC)[C@@H](O)[C@H](C)O2)[C@H](C)[C@@H](O[C@@H]2O[C@H](C)C[C@H](N(C)C)[C@H]2O)[C@](C)(O)C[C@@H](C)C(=O)[C@H](C)[C@@H](O)[C@]1(C)O [erythromycin, reference compound]		> 100 µg/mL	0.2 µg/mL (≈ 0.273 µM)	0.2 µg/mL (≈ 0.273 µM)	≤ 0.05 µg/mL	> 100 µg/mL
CC[C@H]1OC(=O)C[C@@H](O)[C@H](C)[C@@H](O[C@@H]2O[C@H](C)[C@@H](O[C@H]3C[C@@](C)(O)[C@@H](O)[C@H](C)O3)[C@H](N(C)C)[C@H]2O)[C@@H](CC=O)C[C@@H](C)C(=O)/C=C/C(C)=C/[C@@H]1CO[C@@H]1O[C@H](C)[C@@H](O)[C@@H](OC)[C@H]1OC [tylosin]		1.6 µg/mL (≈ 1.75 µM)	3.1 µg/mL (≈ 3.38 µM)	1.6 µg/mL (≈ 1.75 µM)	0.4 µg/mL (≈ 0.437 µM)	1.6 µg/mL (≈ 1.75 µM)
